# Assay results from patent US20250154554A1, “ANTIMICROBIAL SUSCEPTIBILITY” (priority 2022, published 2025).
# Counter-ions that a name gives are not always drawn. Like-named read-outs stand apart in the source and are kept apart here.
# How the values were obtained:
# K. pneumoniae = assay: MIC of strains giving very major errors (VME); assay type: cell-based
# E. coli = assay: MIC of strains giving very major errors (VME); assay type: cell-based
# E. cloacae = assay: MIC of strains giving very major errors (VME); assay type: cell-based
# [1] = system: Gram-negative bacteria (Enterobacterales, Pseudomonas, Acinetobacter); conditions: for RM I (strains intermediate by reference method) / RM R (strains resistant by reference method) / RM S (strains susceptible by reference method): total of 3 sites, blood cultures; for CLSI RM I / EUCAST RM I: number of strains I; for CLSI RM R / EUCAST RM R: number of strains resistant; for CLSI RM S / EUCAST RM S: number of strains susceptible
# K. aerogenes = assay: MIC of strains giving very major errors (VME); assay type: cell-based; conditions: strain EB 069, site 2
# Enterobacterales = assay: Broth microdilution MIC of meropenem for screening of carbapenemases; assay type: cell-based; conditions: the 2 strains found false negative in the carbapenemase screening
# [2] = system: Gram-positive bacteria (Staphylococcus spp, Enterococcus spp); assay: Reference method (RM): disk diffusion and/or broth microdilution, S/I/R classification, Gram-positive strains; assay type: cell-based; conditions: for CLSI RM R / EUCAST RM R: number of strains resistant; for CLSI RM S / EUCAST RM S: number of strains susceptible;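 on all read-outs here: susceptibility categories assigned with the latest EUCAST breakpoint tables or CLSI M100 29th edition breakpoints, with quality control of the reference methods following EUCAST and CLSI guidance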
# Staphylococcus aureus = assay: Vancomycin MIC by FASTgrampos kit versus broth microdilution (reference method); assay type: cell-based
# bacteria = conditions: by cell membrane lesions; reference [14]; cited from earlier work
# fungi = conditions: by cell membrane lesions; reference [13]; cited from earlier work
# S. aureus = assay: MIC of strains giving very major errors (VME); assay type: cell-based; conditions: strain ST 099, site 2
# [3] = Klebsiella pneumoniae, strain EB 033, site 2, read-out: MIC
# [4] = CLSI, FASTinov, Porto, spiked on blood cultures
# [5] = CLSI, Hospital Ramon et Cajal, Madrid, patients' blood cultures
# [6] = EUCAST, FASTinov, Porto, spiked on blood cultures
# [7] = EUCAST, Hospital Ramon et Cajal, Madrid, patients' blood cultures
# [8] = EUCAST, Hospital S. João, Porto, patients' blood cultures
# [9] = CLSI, Hospital S. João, Porto, patients' blood cultures
# [10] = CLSI, FASTinov, Porto, spiked blood cultures
# [11] = CLSI, total of 3 sites, blood cultures
# [12] = EUCAST, FASTinov, Porto, spiked blood cultures
# [13] = EUCAST, total of 3 sites, blood cultures
# [14] = CLSI, Hospital Ramon et Cajal, Madrid, patients blood cultures
# [15] = EUCAST, Hospital Ramon et Cajal, Madrid, patients blood cultures
molecule,measurement,setting,value
CO/N=C(\C(=O)N[C@@H]1C(=O)N2C(C(=O)[O-])=C(C[N+]3(C)CCCC3)CS[C@H]12)c1csc(N)n1 [Cefepime],MIC,K. pneumoniae; [3],32 µg/mL
same,MIC,"E. coli; Escherichia coli, strain EB 022, site 2, read-out: MIC",4 µg/mL
same,MIC,"E. coli; Escherichia coli, strain EB 052, site 2, read-out: MIC",64 µg/mL
CC(C)(O/N=C(\C(=O)N[C@@H]1C(=O)N2C(C(=O)[O-])=C(C[n+]3ccccc3)CS[C@H]12)c1csc(N)n1)C(=O)O [Ceftazidime],MIC,"E. cloacae; Enterobacter cloacae, strain EB 1168, site 1",32 µg/mL
same,MIC,K. pneumoniae; [3],32 µg/mL
same,RM I (strains intermediate by reference method),[1]; CLSI,4
same,RM R (strains resistant by reference method),[1]; CLSI,115
same,RM S (strains susceptible by reference method),[1]; CLSI,194
same,RM I (strains intermediate by reference method),[1]; EUCAST,34
same,RM R (strains resistant by reference method),[1]; EUCAST,119
same,RM S (strains susceptible by reference method),[1]; EUCAST,159
same,CLSI RM I,[1]; [4],3
same,CLSI RM I,[1]; [5],1
same,EUCAST RM I,[1]; [6],29
same,EUCAST RM I,[1]; [7],3
same,EUCAST RM I,[1]; [8],2
same,CLSI RM R,[1]; [4],94
same,CLSI RM R,[1]; [5],13
same,CLSI RM R,[1]; [9],8
same,EUCAST RM R,[1]; [6],98
same,EUCAST RM R,[1]; [7],15
same,EUCAST RM R,[1]; [8],6
same,CLSI RM S,[1]; [4],56
same,CLSI RM S,[1]; [5],64
same,CLSI RM S,[1]; [9],74
same,EUCAST RM S,[1]; [6],26
same,EUCAST RM S,[1]; [7],60
same,EUCAST RM S,[1]; [8],73
same,MIC,K. aerogenes; Klebsiella aerogenes,16 µg/mL
C[C@@H](O)[C@H]1C(=O)N2C(C(=O)O)=C(S[C@@H]3CN[C@H](C(=O)N(C)C)C3)[C@H](C)[C@H]12 [Meropenem],MIC,Enterobacterales,0.5 µg/mL
same,MIC,"K. pneumoniae; Klebsiella pneumoniae, strain EB 021, site 2, read-out: MIC",16 µg/mL
same,RM I (strains intermediate by reference method),[1]; CLSI,5
same,RM R (strains resistant by reference method),[1]; CLSI,10
same,RM S (strains susceptible by reference method),[1]; CLSI,217
same,RM R (strains resistant by reference method),[1]; EUCAST,9
same,RM S (strains susceptible by reference method),[1]; EUCAST,223
same,CLSI RM I,[1]; [4],5
same,CLSI RM R,[1]; [4],7
same,CLSI RM R,[1]; [5],3
same,EUCAST RM R,[1]; [6],6
same,EUCAST RM R,[1]; [7],3
same,CLSI RM S,[1]; [4],69
same,CLSI RM S,[1]; [5],72
same,CLSI RM S,[1]; [9],76
same,EUCAST RM S,[1]; [6],75
same,EUCAST RM S,[1]; [7],72
same,EUCAST RM S,[1]; [8],76
CN[C@H](CC(C)C)C(=O)N[C@H]1C(=O)N[C@@H](CC(N)=O)C(=O)N[C@H]2C(=O)N[C@H]3C(=O)N[C@H](C(=O)N[C@H](C(=O)O)c4cc(O)cc(O)c4-c4cc3ccc4O)[C@H](O)c3ccc(c(Cl)c3)Oc3cc2cc(c3O[C@@H]2O[C@H](CO)[C@@H](O)[C@H](O)[C@H]2O[C@H]2C[C@](C)(N)[C@H](O)[C@H](C)O2)Oc2ccc(cc2Cl)[C@H]1O [Vancomycin],RM I (strains intermediate by reference method),[2]; [10],3
same,RM R (strains resistant by reference method),[2]; [10],7
same,RM S (strains susceptible by reference method),[2]; [10],100
same,RM I (strains intermediate by reference method),[2]; [11],3
same,RM R (strains resistant by reference method),[2]; [11],8
same,RM S (strains susceptible by reference method),[2]; [11],254
same,RM R (strains resistant by reference method),[2]; [12],10
same,RM S (strains susceptible by reference method),[2]; [12],100
same,RM R (strains resistant by reference method),[2]; [13],11
same,RM S (strains susceptible by reference method),[2]; [13],254
same,CLSI RM R,[2]; [9],1
same,EUCAST RM R,[2]; [8],1
same,CLSI RM S,[2]; [14],56
same,CLSI RM S,[2]; [9],98
same,EUCAST RM S,[2]; [15],56
same,EUCAST RM S,[2]; [8],98
same,number of S. aureus strains in MIC distribution,"Staphylococcus aureus; MIC by FASTgrampos 0.25 mg/L, MIC by microdilution 0.25 mg/L",2
same,number of S. aureus strains in MIC distribution,"Staphylococcus aureus; MIC by FASTgrampos 0.25 mg/L, MIC by microdilution 0.5 mg/L",15
same,number of S. aureus strains in MIC distribution,"Staphylococcus aureus; MIC by FASTgrampos 0.5 mg/L, MIC by microdilution 0.5 mg/L",21
same,number of S. aureus strains in MIC distribution,"Staphylococcus aureus; MIC by FASTgrampos 0.5 mg/L, MIC by microdilution 1 mg/L",10
same,number of S. aureus strains in MIC distribution,"Staphylococcus aureus; MIC by FASTgrampos 1 mg/L, MIC by microdilution 0.5 mg/L",3
same,number of S. aureus strains in MIC distribution,"Staphylococcus aureus; MIC by FASTgrampos 1 mg/L, MIC by microdilution 1 mg/L",7
same,number of S. aureus strains in MIC distribution,"Staphylococcus aureus; MIC by FASTgrampos 2 mg/L, MIC by microdilution 1 mg/L",3
same,number of S. aureus strains in MIC distribution,"Staphylococcus aureus; MIC by FASTgrampos 2 mg/L, MIC by microdilution 2 mg/L",2
CN(C)CCCOc1nn(Cc2ccccc2)c2ccccc12 [benzydamine hydrochloride],killing of bacteria,bacteria,rapidly kills
same,killing of fungi,fungi,rapidly kills
Gentamicin,RM R (strains resistant by reference method),[2]; [10],15
same,RM S (strains susceptible by reference method),[2]; [10],51
same,RM R (strains resistant by reference method),[2]; [11],54
same,RM S (strains susceptible by reference method),[2]; [11],147
same,RM R (strains resistant by reference method),[2]; [12],29
same,RM S (strains susceptible by reference method),[2]; [12],37
same,RM R (strains resistant by reference method),[2]; [13],70
same,RM S (strains susceptible by reference method),[2]; [13],131
same,CLSI RM R,[2]; [14],15
same,CLSI RM R,[2]; [9],24
same,EUCAST RM R,[2]; [15],17
same,EUCAST RM R,[2]; [8],24
same,CLSI RM S,[2]; [14],28
same,CLSI RM S,[2]; [9],68
same,EUCAST RM S,[2]; [15],26
same,EUCAST RM S,[2]; [8],68
same,RM I (strains intermediate by reference method),[1]; CLSI,6
same,RM R (strains resistant by reference method),[1]; CLSI,77
same,RM S (strains susceptible by reference method),[1]; CLSI,262
same,RM R (strains resistant by reference method),[1]; EUCAST,69
same,RM S (strains susceptible by reference method),[1]; EUCAST,194
same,CLSI RM I,[1]; [4],3
same,CLSI RM I,[1]; [5],1
same,CLSI RM I,[1]; [9],2
same,CLSI RM R,[1]; [4],60
same,CLSI RM R,[1]; [5],9
same,CLSI RM R,[1]; [9],8
same,EUCAST RM R,[1]; [6],47
same,EUCAST RM R,[1]; [7],10
same,EUCAST RM R,[1]; [8],12
same,CLSI RM S,[1]; [4],120
same,CLSI RM S,[1]; [5],70
same,CLSI RM S,[1]; [9],72
same,EUCAST RM S,[1]; [6],64
same,EUCAST RM S,[1]; [7],65
same,EUCAST RM S,[1]; [8],65
same,MIC,"E. coli; strain EB 286, site 3",8 µg/mL
Penicillin,RM R (strains resistant by reference method),[2]; [10],82
same,RM S (strains susceptible by reference method),[2]; [10],49
same,RM R (strains resistant by reference method),[2]; [11],209
same,RM S (strains susceptible by reference method),[2]; [11],94
same,RM R (strains resistant by reference method),[2]; [12],28
same,RM S (strains susceptible by reference method),[2]; [12],7
same,RM R (strains resistant by reference method),[2]; [13],56
same,RM S (strains susceptible by reference method),[2]; [13],19
same,CLSI RM R,[2]; [14],53
same,CLSI RM R,[2]; [9],74
same,EUCAST RM R,[2]; [15],10
same,EUCAST RM R,[2]; [8],18
same,CLSI RM S,[2]; [14],15
same,CLSI RM S,[2]; [9],30
same,EUCAST RM S,[2]; [15],2
same,EUCAST RM S,[2]; [8],10
same,MIC,S. aureus,0.25 mg/L
Piperacillin-tazobactam,MIC (mg/L),"E. cloacae; strain EB 123, site 1",64/4
same,MIC,"K. pneumoniae; strain EB 101, site 1",64 µg/mL
same,RM I (strains intermediate by reference method),[1]; CLSI,13
same,RM R (strains resistant by reference method),[1]; CLSI,95
same,RM S (strains susceptible by reference method),[1]; CLSI,237
same,RM I (strains intermediate by reference method),[1]; EUCAST,51
same,RM R (strains resistant by reference method),[1]; EUCAST,86
same,RM S (strains susceptible by reference method),[1]; EUCAST,177
same,CLSI RM I,[1]; [4],6
same,CLSI RM I,[1]; [5],7
same,EUCAST RM I,[1]; [6],49
same,EUCAST RM I,[1]; [7],2
same,CLSI RM R,[1]; [4],87
same,CLSI RM R,[1]; [5],2
same,CLSI RM R,[1]; [9],6
same,EUCAST RM R,[1]; [6],71
same,EUCAST RM R,[1]; [7],9
same,EUCAST RM R,[1]; [8],6
same,CLSI RM S,[1]; [4],90
same,CLSI RM S,[1]; [5],71
same,CLSI RM S,[1]; [9],76
same,EUCAST RM S,[1]; [6],33
same,EUCAST RM S,[1]; [7],69
same,EUCAST RM S,[1]; [8],75
same,MIC (mg/L),"E. coli; strain EB 718, site 1",>128/4
same,MIC (mg/L),K. aerogenes,64/4
